Reference: PMC10279755 (Nature Communications, 2023)
Where two headings read alike, the source gives them in different places. Ends that are not written are not given here.

Key:
[1] = tested on: HUVECs; design: method as in earlier work; conditions: curcumin up to 100 µM, up to 72 h; ref Kumar et al. 1998; Do et al. 2022; Ouyang et al. 2019; Hosseini et al. 2019; Yuan et al. 2022; cited from earlier work
Excerpt: page 17: Reviewer #3 Specific Comment 1. I have one very major concern that should be experimentally addressed.

[2] = tested on: aminopeptidase N (APN); experiment: In vitro aminopeptidase N (APN) activity assay with Ala-MCA in HUVECs; type: cell-based, human; conditions: 100 μM Ala-MCA in PBS, curcumin 50 µM, 24 h, fluorescence λex 360 nm, λem 460 nm
Procedure: HUVEC cells were plated in a 96-well plate at a density of 5000 cells per well in 200 μL complete ECGM V2 media per well. After culturing for 24 h, cells were washed with 1X PBS two times. […] The release of fluorescent product 7-amino-4-methylcoumarin in the media was monitored on the plate reader (BioTek Cytation3 imaging reader) with λex of 360 nm and peak λem of 460 nm.

[3] = tested on: HUVECs (cell surface laminin receptor integrin); experiment: In vitro study of biological function using fluorescent probe: rhodamine B-labeled peptide attachment to HUVECs (CTCF); type: cell-based, human
Procedure: HUVECs were plated at a density of 0.1 million cells per well in a 24-well plate with 0.5 mL complete ECGM per well and cultured for 24 h, followed by washing with 1× PBS three times and the addition of 950 μL serum-free ECGM per well. Rhodamine B labeled peptide solution (50 μL in serum-free ECGM, 1 mM) was mixed with 0.05% trypsin (5 μL). The mixed solution was then added to each well for a total volume of 1005 μL. Cells were incubated with the mixed solution for various time periods. At different time points (1 h up to 30 h), the media was removed, and cells were washed with PBS three times. Fresh PBS (500 μL) was added to the wells, and the plate was visualized by bright-field and fluorescence microscopy (Nikon Eclipse Ti−U) with TRITC filter set. The magnification was 20×. Corrected total cell fluorescence (CTCF) intensity was estimated using the equation CTCF = integrated density − (area of selected cell) × (mean fluorescence of background). A rectangular drawing/selection tool in ImageJ was used to select a desired region with fluorescence, and its integrated density and area were measured. […] Cell counts were 30 for each group from three separate wells.
The corrected total cell fluorescence (CTCF) was calculated as follows:1 2 CTCF = integrated density – (area of selected cell × mean fluorescence of background readings)
Supplementary Table 1. Statistics Data of CTCF at each timepoint measured from fluorescence images of Ac-E5G2KSYIGR-KRB with trypsin, and control peptides mentioned […]
Comparison Mean q P value […]
Group comparisons are indicated as determined by a one -way analysis of variance (ANOVA) with a Student−Newman−Keuls comparisons post hoc test. *** indicates p < 0.001, ** indicates p < 0.01, * indicates p < 0.05, and ns indicates no significance among indicated

[4] = tested on: trypsin; experiment: trypsin (0.08 wt% total) in PBS buffer; conditions: 37 °C
[5] = molecular target: T1, trypsin (Sus scrofa, UniProt P00761); experiment: Trypsin cleavage of switch peptide followed by MALDI-TOF MS; type: biochemical
T1 construct: purchased VWR (Radnor, PA, USA)
T1 sequence (P00761 9-231): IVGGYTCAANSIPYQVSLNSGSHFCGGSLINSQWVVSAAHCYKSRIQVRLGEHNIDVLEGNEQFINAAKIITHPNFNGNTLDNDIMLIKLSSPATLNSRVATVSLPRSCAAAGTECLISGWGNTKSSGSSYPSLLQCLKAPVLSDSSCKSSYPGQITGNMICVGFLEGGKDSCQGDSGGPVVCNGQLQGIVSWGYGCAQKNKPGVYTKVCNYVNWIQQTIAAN
Procedure: We followed the kinetics of Lys residue cleavage by trypsin and functional peptide formation using MALDI-TOF mass spectrometry (MS). We tracked disappearance of the switch peptide peak and evolution of the intermediate or functional peptide peak (SYIGR or Ac-YIGSR; both have the same exact mass) after treatment with trypsin. […] After 3 h, the intensity of both signals was similar, and after 24 h the switch peptide signal disappeared completely, while the intermediate/functional peptide peak became dominant, indicating near-complete conversion.
Addition of the KRB unit created a new potential cleavage site for trypsin at the C-terminal side of the Arg residue (i.e., the R–KRB peptide bond). To ensure the desired response still occurred, i.e., cleavage of the K–SYIG peptide bond to remove the N-terminal Lys residue, we designed an experiment to follow the transformation of KSYIGRK as a representative peptide that contains two potential cleavage points, the desired K–SYIG peptide bond and the undesired R–K peptide bond. We treated this peptide with trypsin and followed bond cleavage at these two sites using MALDI-TOF MS. […] However, we envisioned that this undesired cleavage would not be a problem in cell studies because it would simply generate a KRB species that would be removed in washing steps.
Switch peptide solution (100 μL, 5 mg/mL in PBS) was mixed with 20 μL of a trypsin solution (0.25%) in a vial and placed at 37 °C in an incubator. Aliquots (2 μL) from each reaction solution were withdrawn at specific times, and trypsin was deactivated immediately by the addition of acetic acid (0.3 μL, 1 M in distilled water). Samples (0.8 μL) were then mixed with a matrix solution (0.8 μL, 0.02 M α-cyano-4-hydroxycinnamic acid dissolved in acetonitrile/methanol/water (1:1:1) with 0.1% formic acid) and deposited on a MALDI plate (Opti-TOF 384 Well, 123 × 81 mm). Samples were analyzed using a matrix-assisted laser desorption ionization−tandem time-of-flight mass spectrometer (4800 MALDI TOF/TOF, AB Sciex).

[6] = tested on: HUVECs; experiment: Cell viability assay (CCK-8); type: cell-based, human
Procedure: HUVECs (ATCC catalog number PCS-100-010) were plated in a 96-well plate at a density of 5000 cells per well in 200 μL complete ECGM per well. After culturing for 24 h, the media was discarded and the cells were washed with 1X PBS three times before […] serum-containing ECGM media was added. Next, varying amounts of peptide stock solution (4 mM in PBS) were diluted to […] with PBS and added to the wells to make the final peptide concentrations ranging from 10 to 200 µM. After incubation for 24 h, cells were washed three times with PBS and then treated with serum-free ECGM media (100 μL). Next, 10 μL cell counting kit 8 solution (CCK-8, Dojindo, Rockville, MD) was added to each well. After incubation for another 3 h to allow for development of the CCK8 dye, absorbance was recorded at 450 and 750 nm using a BioTek Synergy Mx plate reader (BioTek, Winooski, VT). Worked-up data (absorbance at 750 nm subtracted from absorbance at 450 nm) were graphed using GraphPad InStat, version 3 (GraphPad Software, Inc., San Diego, CA). Mean values are reported together with the standard deviation (SD) representing the combination of 3 independent experimental runs with five replicates per experiment.

[7] = tested on: CD29 (integrin β1); experiment: Immunofluorescence co-localization with CD29; type: cell-based, human; conditions: HUVECs, 50 µM peptide, 24 h, fixed, confocal microscopy, done once
Procedure: HUVEC cells were seeded in an 8-chamber glass slide (Lab-Tek Chamber Slide) at a density of 30,000 cells per well in 0.4 mL complete ECGM media per well. After culturing for 24 h, cells were washed twice with 1× PBS. The cells were then incubated with 395 μL of serum-free ECGM media […] in the following groups: Blank (5 μL PBS), and 4 mM Ac-YIGSR-KRB (5 μL in PBS, final concentration 50 µM). After incubation for 24 h, the media was removed, and cells were washed with PBS three times. Cultured cells were then fixed in 10% formalin for 5 min, then washed three times with PBS for 5 min each. Slides were blocked for 1 h with 2% cold water fish skin gelatin (Sigma, Inc., St. Louis, MO, USA) and 0.2% triton-X100 solution. Slides were then incubated in conjugated primary antibody diluted in blocking solution overnight at room temperature, then washed with PBS five times for 10 min each. The antibody used was FITC Armenian hamster anti-mouse/rat CD29 at a 1:50 dilution (Biolegend, San Diego, CA, USA; Catalog number 102205, clone HMbeta1-1), validated by the manufacturer by immunofluorescent staining with flow cytometric analysis. Finally, slides were mounted with DAPI Fluoromount-G (SouthernBiotech, Birmingham, AL, USA). Images were then obtained using a Nikon A1 Confocal Microscope with NIS Elements Imaging Software (Melville, New York, USA).

[8] = tested on: trypsin; experiment: trypsin solution (0.25%) mixed with switch peptide solution in PBS; conditions: 37 °C, up to 24 h
[9] = switch peptide 5 mg/mL in PBS (100 μL) + 20 μL 0.25% trypsin, 37 °C

In the case of COc1cc(/C=C/C(=O)CC(=O)/C=C/c2ccc(O)c(OC)c2)ccc1O [curcumin], the “viability of HUVECs” value [1] is listed as greater than 80% and the “APN activity remaining with inhibitor” value [2] is listed as ~ 25%.

For “Ac-E5G2KSYIGRKRB (lariat or depsi) [Ac-E5G2KSYIGR-KRB, switch peptide labeled with the fluorescent probe rhodamine B]”, the “fluorescence signal on HUVECs after washing (in words)” value (from here on “fluorescence signal on HUVECs”) ([3]; with trypsin, 1 h) was “negligible fluorescent signal”, the “fluorescence signal on HUVECs” value ([3]; with trypsin, 30 h) was “strong signal” and the “fluorescence signal on HUVECs” value ([3]; without trypsin, 30 h) was “no fluorescence signal”.

For Ac-KSYIGRK, the cleaved bond [4] was “K-S and R-K”.

In the case of “Ac-KSYIGRK (also: lariat or depsi (positions not given here))”, the “trypsin cleavage at K–SYIG versus R–K peptide bond” value ([5]; trypsin, cleavage at either site but not both simultaneously) is reported as “approximately the same rate”.

With “Ac-KYIGR-KRB [fluorescence labeled peptide with YIG on the side chain, cannot undergo a switch; negative control]” the “fluorescence signal on HUVECs” value ([3]; with trypsin, 30 h) was “no fluorescence” and the “fluorescence signal on HUVECs” value ([3]; without trypsin, 30 h) was “no fluorescence”.

In the case of “Ac-YIGSR [functional cell-adhesive pentapeptide derived from the ECM protein laminin, reference compound]”, the “cytotoxicity in cell viability studies” value ([6]; HUVECs, CCK-8, peptide up to 200 µM, 24 h) is reported as “no cytotoxicity”.

For “Ac-YIGSR-KRB [rhodamine B-labeled functional peptide, positive control]”, the “fluorescence signal on HUVECs” value ([3]; without trypsin, 30 h) was “strong fluorescence” and the “co-localization of rhodamine B-labeled peptide with anti-CD29-FITC stain” value [7] was “colocalized with integrin β1”.

In the case of “KSYIGR (also: lariat or depsi (positions not given here)) [non-functional depsipeptide; SYIG = Ser residue esterified with Ac-YIG; trypsin removes N-terminal Lys]”, the “time after which switch peptide signal (m/z = 764) started to decrease” value [5, 9] is reported as 1 h, the “time at which intensity of switch peptide and intermediate/functional peptide signals was similar” value [5, 9] is reported as 3 h and the “time at which switch peptide signal disappeared completely (near-complete conversion)” value [5, 9] is reported as 24 h.

With “KSYIGR, where the SYIG unit indicates a Ser residue esterified with the Ac-YIG peptide sequence (Ac = acetyl)” the cleaved bond [8] was “Lys-Ser, 1 h”.

B1: trypsin: enzyme that cleaves peptide bonds on the C-terminal side of positively charged residues (protein, UniProt P00760 24-246, looked up)
Serine protease 1: IVGGYTCGANTVPYQVSLNSGYHFCGGSLINSQWVVSAAHCYKSGIQVRLGEDNINVVEGNEQFISASKSIVHPSYNSNTLNNDIMLIKLKSAASLNSRVASISLPTSCASAGTQCLISGWGNTKSSGTSYPDVLKCLKAPILSDSSCKSAYPGQITSNMFCAGYLEGGKDSCQGDSGGPVVCSGKLQGIVSWGSGCAQKNKPGVYTKVCNYVSWIKQTIASN
For B1, the “cytotoxicity in cell viability studies” value [6] was “no cytotoxicity”.
